According to patent US11471462B2, “Compositions and methods for detecting and treating diabetes” (THE BROAD INSTITUTE, INC., priority 2016, dated 2022):

Key:
[1] = test system: SLC16A13; experiment: Metabolic effectors on SLC16A13 transcript levels in SNU761 cells; format: cell-based, human; details: 24 hours, low and high concentrations
Method: (§1) FIG. 22 provides bar graphs showing the effects of low and high concentrations of metabolic effectors (oleic acid (OA), insulin and glucagon) on expression levels of SLC16A11 and SLC16A13 transcripts in SNU761 cells cultured for 24 hours in the presence of low/high concentrations of OA (0.3 mM/1.5 mM); insulin (100 nM/500 nM); or glucagon (100 nM/500 nM). Relative transcipt levels of SLC16A11 and SLC16A13 are shown, with 2-FBS (2% Fetal Bovine Serum) used as control.
(§2) FIG. 23 provides bar graphs showing the effects of low and high concentrations of pyruvate or lactate on expression levels of SLC16A11 and SLC16A13 transcripts in SNU761 cells cultured for 24 hours in the presence of 2 mM pyruvate (low), 10 mM pyruvate (high), 20 mM lactate (low), or 100 mM lactate (high). Relative transcipt levels of SLC16A11 and SLC16A13 are shown, compared with transcript levels in cell cultured in increasing concentrations of glucose.
(§3) To assess whether metabolic effectors regulated SLC16A11 and SLC16A13 transcript levels, endogenous transcripts in SNU761 cells (derived from a human hepatocellular carcinoma) were examined following exposure of the cells to different metabolic perturbations. SNU761 cells were cultured in the presence of various metabolic effectors for 24 hours after which time cell lysates were collected and the relative endogenous expression levels of SLC16A11 and SLC16A13 transcripts were assessed. The metabolic effectors included in the cell cultures included oleic acid (OA) at a low concentration (0.3 mM) or a high concentration (1.5 mM); insulin at a low concentration (100 nM) or a high concentration (500 nM) and glucagon at a low concentration (100 nM) and a high concentration (500 nM). Cells cultured in 2-FBS were used as a control. […] (FIG. 22). Similarly, SNU761 cells were cultured in the presence or absence of low or high concentrations of pyruvate or lactate in the culture medium for 24 hours after which time cell lysates were analyzed. In the cultures, low (L) pyruvate concentration was 2 mM; high (H) pyruvate concentration was 10 mM, and low lactate concentration was 20 mM, while high lactate concentration was 100 mM. […] (FIG. 23).

[2] = test system: SLC16A11; experiment: Metabolic effectors on SLC16A11 transcript levels in SNU761 cells; format: cell-based, human; details: 24 hours, low and high concentrations
Method: as §1, §2, §3

[3] = test system: SLC16A11; experiment: SLC16A11 protein-protein interaction study (immunoprecipitation, quantitative mass spectrometry); design: species or system human; details: putative SLC16A11^REF interaction partners; immunoprecipitation from HEK293T cells vs empty vector control; Blandt-Altman
Source text: Alternatively, these variants may result in reduced transport because they disrupt protein-protein interactions responsible for correct SLC16A11 function. To explore this possibility, SLC16A11 was immunoprecipitated from HEK293T cells expressing either REF or T2D risk SLC16A11-V5 or empty vector control and quantitative mass spectrometry was used to define the SLC16A11 interactome.
Another mechanism through which the variants could affect activity is through disruption of protein-protein interactions. To explore this possibility, quantitative mass spectrometry-based protein-protein interaction studies were performed to define the SLC16A11 interactome and evaluate if the T2D risk coding variants alter any interactions.
Beads were then washed once with lysis buffer and three times with wash buffer. After the last wash, residual wash buffer was removed, 10 μL fresh wash buffer was added, and beads were stored at −80° C. until analysis by the Proteomics Platform at the Broad Institute, as detailed in the “Proteomics Methods for SLC16A11 Protein Interaction Studies” below.
The beads from immunopurification were washed once with IP lysis buffer, then three times with PBS, the three different lysates of each replicate were resuspended in 90 uL digestion buffer (2M Urea, 50 mM Tris HCl), 2 ug of sequencing grade trypsin added, 1 hour shaking at 700 rpm. The supernatant was removed and placed in a fresh tube. The beads were then washed twice with 50 uL digestion buffer and combined with the supernatant. The combined supernatants were reduced (2 uL 500 mM DTT, 30 minutes, RT), alkylated (4 uL 500 mM IAA, 45 minutes, dark) and a longer overnight digestion performed: 2 ug (4 uL) trypsin, shake o/n, The samples were then quenched with 20 uL 10% FA and desalted on 10 mg SepPak columns.
Desalted peptides were labelled with iTRAQ reagents according to the manufacturer's instructions (AB Sciex, Foster City, Calif.). Peptides were dissolved in 30 μl of 0.5 M TEAB pH 8.5 solution and labeling reagent was added in 70 ul of ethanol. After 1 h incubation the reaction was stopped with 50 mM Tris/HCl pH 7.5. Differentially labelled peptides were mixed and subsequently desalted on 10 mg SepPak columns.
Reconstituted peptides were separated on an online nanoflow EASY-nLC 1000 UHPLC system (Thermo Fisher Scientific) and analyzed on a benchtop Orbitrap Q Exactive Plus mass spectrometer (Thermo Fisher Scientific). The peptide samples were injected onto a capillary column (Picofrit with 10 μm tip opening/75 μm diameter, New Objective, PF360-75-10-N-5) packed in-house with 20 cm C18 silica material (1.9 μm ReproSil-Pur C18-AQ medium, Dr. Maisch GmbH, r119.aq). The UHPLC setup was connected with a custom-fit microadapting tee (360 μm, IDEX Health & Science, UH-753), and capillary columns were heated to 50° C. in column heater sleeves (Phoenix-ST) to reduce backpressure during UHPLC separation. Injected peptides were separated at a flow rate of 200 nL/min with a linear 80 min gradient from 100% solvent A (3% acetonitrile, 0.1% formic acid) to 30% solvent B (90% acetonitrile, 0.1% formic acid), followed by a linear 6 min gradient from 30% solvent B to 90% solvent B. Each sample was run for 120 min, including sample loading and column equilibration times. The Q Exactive instrument was operated in the data-dependent mode acquiring HCD MS/MS scans (R=17,500) after each MS1 scan (R=70,000) on the 12 top most abundant ions using an MS1 ion target of 3×10^6 ions and an MS2 target of 5×10^4 ions. The maximum ion time utilized for the MS/MS scans was 120 ms; the HCD-normalized collision energy was set to 27; the dynamic exclusion time was set to 20 s, and the peptide match and isotope exclusion functions were enabled.
All mass spectra were processed using the Spectrum Mill software package v6.0 pre-release (Agilent Technologies) which includes modules developed by us for iTRAQ-based quantification. […]

[4] = test system: SLC16A11; experiment: CRISPR (SAM) transactivation assay, SLC16A11 expression in 293T cells; format: cell-based, human; details: Cas9-based transactivators (SAM) targeted near variant
Source text: These experiments are based upon Cas9 based transactivators (SAM or synergistic activation mediators) as described in Konermann et al (Nature 517: 583-588, 2015). Similar experiments based on other types of transactivators that are more finely tuned to distal activation such as those described in Hilton et al. (Nature 33:510-518, 2015) could also be envisioned. Cas9 was used to target transactivators to sites near individual variants in the credible set. Their ability to activate SLC16A11 gene expression was assessed (Table 10).
Cell lines derived from HEK293-T cells were established by lentivirus infection resulting in stable integration of two components of the SAM system namely dCas9-VP64 and MS2-p65-HSF1. The resulting stable cell lines were then plated into 96 well plates and left overnight. The next day, cells were transfected with the guide RNAs (pHKO23), the final component of the SAM system. After an additional 48 hours, cells were harvested for gene expression analyses.

In the case of CCCCCCCC/C=C\CCCCCCCC(=O)O [oleic acid], the SLC16A13 transcript levels [1] is reported as “increase” and the SLC16A11 transcript levels [2] is reported as “alter”.
SCFD1 was tested, and the “BA log fold change” value [3] was 1.08.
For TUBA1B, the “BA log fold change” value [3] was 1.05.
In the case of PSMC3, the “BA log fold change” value [3] is reported as 1.16.
RNF5 was tested, and the “BA log fold change” value [3] was 1.42.
For “TGGCTCTGGGTGCTGAAACG (chemistry not given here)”, the “Increases SLC16A11 transcript levels in transactivator assay” value (from here on “Increases SLC16A11 transcript levels”) [4] was “TRUE”.
“rs312457 (guide 1 TGATGAAACCTGGCCGGGCA; guide 2 GTGAGCCACCGTGCCCGGCC; listed as DNA, chemistry not given here; listed as Homo sapiens)” was tested, and the “Increases SLC16A11 transcript levels” value [4] was “FALSE”.
For DNAJB4, the “BA log fold change” value [3] was 1.08.
For KIAA0368, the “BA log fold change” value [3] was 1.16.
With PSMD2 the “BA log fold change” value [3] was 0.98.
“rs74577409 (guide 1 ACCTGCCGCCTGCTGCGCGC; guide 2 CCCTGCGCGCAGCAGGCGGC; listed as DNA, chemistry not given here; listed as Homo sapiens)” was tested, and the “Increases SLC16A11 transcript levels” value [4] was “TRUE”.
In the case of “rs17203120 (guide 1 CTTATTTGATTTTATCTCAA; guide 2 TTATTTGATTTTATCTCAAA; listed as DNA, chemistry not given here; listed as Homo sapiens)”, the “Increases SLC16A11 transcript levels” value [4] is reported as “FALSE”.
For “CTATTTCCACGCGTTGGCGG (chemistry not given here)”, the “Increases SLC16A11 transcript levels” value [4] was “TRUE”.
With EMB the “BA log fold change” value [3] was 1.55.
In the case of “rs17203148 (guide 1 TCTGCCAATCTTGGCTCTGT; guide 2 GAAACCTACAGAGCCAAGAT; listed as DNA, chemistry not given here; listed as Homo sapiens)”, the “Increases SLC16A11 transcript levels” value [4] is reported as “FALSE”.
“TGTTCTCAGGAACGTTGCCG (chemistry not given here)” was tested, and the “Increases SLC16A11 transcript levels” value [4] was “TRUE”.
For GCN1L1, the “BA log fold change” value [3] was 1.01.
“rs77552976 (guide 1 GAAAGGGCTGCCGTGCTGTT; guide 2 CCTGGCTGGACCTAACAGCA; listed as DNA, chemistry not given here; listed as Homo sapiens)” was tested, and the “Increases SLC16A11 transcript levels” value [4] was “FALSE”.
For “rs58223766 (guide 1 TCAGGAGTTCGAGACCATCC; guide 2 GATCCACCCCCCCCCCCCCT; listed as DNA, chemistry not given here; listed as Homo sapiens)”, the “Increases SLC16A11 transcript levels” value [4] was “FALSE”.
PSMD11 was tested, and the “BA log fold change” value [3] was 1.02.
For glucagon: metabolic effector (hormone), the SLC16A13 transcript levels [1] was “alter” and the SLC16A11 transcript levels [2] was “alter”.
For “rs78972129 (guide 1 GATGCTATGGTTGGCCACGC; guide 2 AGTACAGTACACAGCCTGCG; listed as DNA, chemistry not given here; listed as Homo sapiens)”, the “Increases SLC16A11 transcript levels” value [4] was “FALSE”.
With “rs191133 (guide 1 TGAAAGTAAGTCAATCATGG; guide 2 ATGATTGACTTACTTTCATC; listed as DNA, chemistry not given here; listed as Homo sapiens)” the “Increases SLC16A11 transcript levels” value [4] was “FALSE”.
ATP1B3 was tested, and the “BA log fold change” value [3] was 1.18.
“ACGGAAACTGGCGCGCTCCA (chemistry not given here)” was tested, and the “Increases SLC16A11 transcript levels” value [4] was “TRUE”.
PSMA1 was tested, and the “BA log fold change” value [3] was 1.20.
For BAG6, the “BA log fold change” value [3] was 1.08.
insulin: metabolic effector (hormone) was tested, and the SLC16A13 transcript levels [1] was “alter” and the SLC16A11 transcript levels [2] was “alter”.
For PSMD14, the “BA log fold change” value [3] was 1.31.
In the case of “GCGGGATTTAGGCATTGTTG (chemistry not given here)”, the “Increases SLC16A11 transcript levels” value [4] is reported as “TRUE”.
With “rs4630597 (guide 1 GGTGCCTCAGATACCTGGTT; guide 2 AACCAGGTATCTGAGGCACC; listed as DNA, chemistry not given here; listed as Homo sapiens)” the “Increases SLC16A11 transcript levels” value [4] was “FALSE”.
In the case of “GGCTGCGTGTTAGTGGCTTC (chemistry not given here)”, the “Increases SLC16A11 transcript levels” value [4] is reported as “TRUE”.
“rs145952323 (guide 1 CAAAAATTAGCCGGGTGTGT; guide 2 CAGGCACACGCCAACACACC; listed as DNA, chemistry not given here; listed as Homo sapiens)” was tested, and the “Increases SLC16A11 transcript levels” value [4] was “FALSE”.
For “rs75075014 (guide 1 GGAAGTGGAGGAGAGTGTCC; guide 2 GGAGTCATGCCTGGAAGTGG; listed as DNA, chemistry not given here; listed as Homo sapiens)”, the “Increases SLC16A11 transcript levels” value [4] was “FALSE”.
